Experiments:
H3 histamine GPCR = biological target: T1, H3 histamine GPCR (Homo sapiens, UniProt Q9Y5N1); test: Radioligand binding assay, H3 receptor (transfected CHO cells); conditions: antagonist 1 μM
T1 construct: host or cells: CHO cells
Procedure: (§1) Binding assays were conducted to evaluate the affinity of test compounds IEM-1460 and IEM-1925 (Eurofins Scientific, Inc.) for 15 targets: the human alpha-1 adrenergic (A1) receptor, histaminergic (H)-2 and−3 receptors, and muscarinic acetylcholine receptors-1 to−5 in transfected CHO cells by radioligand binding. The neuronal α4β2 and neuronal α7 cholinergic acetylcholine receptors were tested in transfected SH-SY5Y cells. The histaminergic-1 and−4 receptors were tested in transfected HEK-293 cells. Ion channel testing for AMPA and N-methyl-D-aspartate (NMDA) was performed in cells from the rat cerebral cortex. […] Non-specific binding was determined in the presence of 1 μM of DCPX. […] The filters were dried and then counted for radioactivity in a scintillation counter (Topcount, Packard) using a scintillation cocktail (Microscint 0, Packard). The results are expressed as a percent inhibition of the control radioligand specific binding: 100-[(measured specific binding)/(control specific binding) × 100]. […]
(§2) We tested the metabolic stability of the compounds with in vitro liver microsome stability assays (Table 1, right). […] We evaluated the compounds for potential toxicity with assays that test for inhibition of off-target ion channels and receptors. […]

[1] = test system: AMPA glutamate (GluA2-containing); test: Radioligand binding assay, AMPA receptor (rat cerebral cortex); conditions: antagonist 1 μM
Procedure: as §1, §2

M2 acetylcholine GPCR = biological target: T2, M2 acetylcholine GPCR (Homo sapiens, UniProt P08172); test: Radioligand binding assay, M2 receptor (transfected CHO cells); conditions: antagonist 1 μM
T2 construct: host or cells: CHO cells
Procedure: as §1, §2

[2] = test system: non-pyramidal cells (expressing mainly GluA2-lacking CP-AMPARs); design: method as in Tikhonov et al., 2000; conditions: 2000, cited from earlier work; for IC50: rat hippocampus ref Tikhonov et al.; for apparent selectivity for CP- over CI-AMPARs: ref Tikhonov et al.
nAChR alpha4/beta2 = biological target: T3, nAChR alpha4/beta2 (Homo sapiens, UniProt P17787+P43681); test: Radioligand binding assay, neuronal α4β2 nicotinic receptor (transfected SH-SY5Y cells); conditions: antagonist 1 μM
T3 construct: host or cells: SH-SY5Y cells
Procedure: as §1, §2

[3] = In vitro microsomal stability assay, mouse; assay type: in vitro ADME; conditions: pH 7.4; mouse liver microsomes, 1 μM compound, 37°C; read-out: Half-life (min) Mean (N = 2)
Procedure: The stability of IEM-1460 in the presence of guinea pig liver microsomes (BioIVT, PN: X008070) or IEM-1925 in the presence of human (BioIVT, PN: M00101), mouse, or guinea pig liver microsomes was evaluated (Paraza Pharma, Inc., Montreal, Quebec, Canada). Both IEM-1925 and IEM-1460 were incubated with microsomes at 37°C for a total of 45 min. Working solutions were prepared in 100 mM potassium phosphate buffer and the final reaction was performed at pH 7.4 in 100 mM potassium phosphate buffer containing 0.5 mg/mL liver microsomal protein. Phase I metabolism was assessed by adding NADPH to a final concentration of 1 mM and collecting samples at time points 0, 5, 15, 30, and 45 min. All collected samples were quenched 1:1 with ice-cold stop solution (1 μM labetalol and 1 μM glyburide in acetonitrile) and centrifuged to remove precipitated protein. […] Samples were analyzed by LC-MS/MS using a Thermo Vanquish UPLC and a Thermo Quantis triple quadrupole mass spectrometer. […] Reference compounds were also assessed to ensure accuracy and precision of experimental protocol: imipramine and verapamil for human liver microsomes, diphenhydramine and verapamil for mouse liver microsomes, and warfarin and verapamil for guinea pig liver microsomes. […] Half-life was determined from a plot of the natural logarithm of the peak area ratio (remaining compound peak area/internal standard peak area) against time. […]

H1 histamine GPCR = biological target: T4, H1 histamine GPCR (Homo sapiens, UniProt P35367); test: Radioligand binding assay, H1 receptor (transfected HEK-293 cells); conditions: antagonist 1 μM
T4 construct: host or cells: HEK-293 cells
Procedure: as §1, §2

T3 sequence (P43681 29-627 limits assumed): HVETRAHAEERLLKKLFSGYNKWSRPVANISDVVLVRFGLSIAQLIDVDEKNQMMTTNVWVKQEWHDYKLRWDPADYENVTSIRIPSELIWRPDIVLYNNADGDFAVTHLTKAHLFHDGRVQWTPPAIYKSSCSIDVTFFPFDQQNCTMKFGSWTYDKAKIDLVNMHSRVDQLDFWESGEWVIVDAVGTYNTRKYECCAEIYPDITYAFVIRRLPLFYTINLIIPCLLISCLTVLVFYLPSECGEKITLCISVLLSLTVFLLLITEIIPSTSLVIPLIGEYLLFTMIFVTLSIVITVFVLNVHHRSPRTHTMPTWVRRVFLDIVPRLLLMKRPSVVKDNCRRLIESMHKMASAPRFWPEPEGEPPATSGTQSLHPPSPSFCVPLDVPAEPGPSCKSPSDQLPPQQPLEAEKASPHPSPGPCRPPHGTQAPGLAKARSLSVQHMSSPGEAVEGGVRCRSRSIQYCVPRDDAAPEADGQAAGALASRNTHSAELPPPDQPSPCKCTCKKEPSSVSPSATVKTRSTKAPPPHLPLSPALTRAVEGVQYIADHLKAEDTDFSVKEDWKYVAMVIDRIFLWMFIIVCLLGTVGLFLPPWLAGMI
T3 sequence (P17787 26-502): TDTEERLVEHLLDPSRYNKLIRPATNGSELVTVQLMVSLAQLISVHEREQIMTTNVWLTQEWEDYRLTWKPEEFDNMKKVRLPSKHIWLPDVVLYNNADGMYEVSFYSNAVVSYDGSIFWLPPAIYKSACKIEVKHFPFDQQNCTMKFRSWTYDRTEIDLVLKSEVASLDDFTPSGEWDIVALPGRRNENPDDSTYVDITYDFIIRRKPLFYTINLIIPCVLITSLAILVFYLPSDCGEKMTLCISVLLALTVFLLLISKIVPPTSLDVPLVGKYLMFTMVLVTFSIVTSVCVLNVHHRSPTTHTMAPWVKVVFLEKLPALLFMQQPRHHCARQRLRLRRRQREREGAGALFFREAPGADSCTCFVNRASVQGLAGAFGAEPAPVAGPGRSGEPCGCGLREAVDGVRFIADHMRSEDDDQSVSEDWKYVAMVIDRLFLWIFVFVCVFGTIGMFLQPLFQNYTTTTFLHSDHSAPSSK
T4 sequence (P35367 whole entry): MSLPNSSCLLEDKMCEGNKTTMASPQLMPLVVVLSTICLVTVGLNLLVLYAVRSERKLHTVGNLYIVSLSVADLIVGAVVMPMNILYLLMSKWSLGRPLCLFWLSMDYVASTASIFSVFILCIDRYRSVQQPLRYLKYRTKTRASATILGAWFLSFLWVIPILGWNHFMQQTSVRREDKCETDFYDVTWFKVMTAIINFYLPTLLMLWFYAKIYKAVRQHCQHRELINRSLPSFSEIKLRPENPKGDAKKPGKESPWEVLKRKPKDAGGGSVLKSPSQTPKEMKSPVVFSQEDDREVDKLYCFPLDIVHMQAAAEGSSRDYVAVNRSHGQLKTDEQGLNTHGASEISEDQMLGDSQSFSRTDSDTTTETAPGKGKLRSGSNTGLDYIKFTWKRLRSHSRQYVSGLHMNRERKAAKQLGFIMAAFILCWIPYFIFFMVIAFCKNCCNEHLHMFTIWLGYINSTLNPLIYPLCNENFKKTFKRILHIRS
T1 sequence (Q9Y5N1 whole entry): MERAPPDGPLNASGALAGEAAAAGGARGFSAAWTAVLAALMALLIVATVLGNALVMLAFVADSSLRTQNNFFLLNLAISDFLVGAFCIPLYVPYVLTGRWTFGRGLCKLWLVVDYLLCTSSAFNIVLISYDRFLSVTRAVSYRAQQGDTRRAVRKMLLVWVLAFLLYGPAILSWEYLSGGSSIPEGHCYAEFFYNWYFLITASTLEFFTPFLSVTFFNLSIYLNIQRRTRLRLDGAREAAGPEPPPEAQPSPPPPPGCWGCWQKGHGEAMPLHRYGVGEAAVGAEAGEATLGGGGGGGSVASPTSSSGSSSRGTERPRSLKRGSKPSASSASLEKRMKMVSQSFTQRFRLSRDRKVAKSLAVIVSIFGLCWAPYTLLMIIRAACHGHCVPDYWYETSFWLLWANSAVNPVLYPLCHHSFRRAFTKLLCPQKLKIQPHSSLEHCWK
T2 sequence (P08172 whole entry): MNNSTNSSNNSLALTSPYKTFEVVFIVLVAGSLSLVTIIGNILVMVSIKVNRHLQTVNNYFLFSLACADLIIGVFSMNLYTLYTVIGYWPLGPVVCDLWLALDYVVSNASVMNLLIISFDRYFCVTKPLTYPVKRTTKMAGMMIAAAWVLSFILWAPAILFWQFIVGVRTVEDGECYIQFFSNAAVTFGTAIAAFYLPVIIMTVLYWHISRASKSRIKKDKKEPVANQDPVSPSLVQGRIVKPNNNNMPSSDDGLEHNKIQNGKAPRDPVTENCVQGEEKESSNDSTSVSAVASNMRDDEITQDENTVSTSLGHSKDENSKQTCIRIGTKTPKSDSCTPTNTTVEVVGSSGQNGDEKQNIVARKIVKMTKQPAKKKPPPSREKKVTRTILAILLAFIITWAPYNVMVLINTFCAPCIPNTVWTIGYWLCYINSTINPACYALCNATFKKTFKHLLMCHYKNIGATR

SMILES	Mean% inhibition (N = 2) of radioligand binding (H3 histamine GPCR)	Mean% inhibition (N = 2) of radioligand binding [1]	Mean% inhibition (N = 2) of radioligand binding (M2 acetylcholine GPCR)	IC50 [2]	apparent selectivity for CP- over CI-AMPARs [2]	Mean% inhibition (N = 2) of radioligand binding (nAChR alpha4/beta2)	half-life at 1 μM [3]	Mean% inhibition (N = 2) of radioligand binding (H1 histamine GPCR)
C[N+](C)(C)CCCCCNCC12CC3CC(CC(C3)C1)C2 [IEM-1460]	<1%	<1%	<1%	~3000 nM	~ 300 fold	<1%	> 300 min	<1%
NCCCCCNC1(c2ccccc2)CCCCC1 [IEM-1925]	<5%	9.5%	<1%	~1000 nM	~ 300 fold	<1%	> 300 min	<1%

From PMC8287724, “Reducing Auditory Nerve Excitability by Acute Antagonism of Ca^2+-Permeable AMPA Receptors” (Frontiers in Synaptic Neuroscience, 2021)
